# Measurements from the NIST ThermoML archive (doi:10.1021/je049814b).
# ± gives the expanded uncertainty stated by the source.
# Assay: wn = mass fraction of the nth substance listed
# Conditions: Liquid, Coaxial cylinder method
smiles,measurement,setting,value
[Br-].[K+] [potassium bromide] + O,thermal conductivity,"294.7 K, 100 kPa, w1 = 0.1",0.578 ± 0.016 W/m/K
same,thermal conductivity,"294.7 K, 2000 kPa, w1 = 0.1",0.578 ± 0.016 W/m/K
same,thermal conductivity,"294.7 K, 10000 kPa, w1 = 0.1",0.582 ± 0.016 W/m/K
same,thermal conductivity,"294.7 K, 40000 kPa, w1 = 0.1",0.592 ± 0.017 W/m/K
same,thermal conductivity,"295.7 K, 100 kPa, w1 = 0.3",0.521 ± 0.015 W/m/K
same,thermal conductivity,"295.7 K, 2000 kPa, w1 = 0.3",0.521 ± 0.015 W/m/K
same,thermal conductivity,"295.7 K, 10000 kPa, w1 = 0.3",0.525 ± 0.015 W/m/K
same,thermal conductivity,"295.7 K, 40000 kPa, w1 = 0.3",0.532 ± 0.015 W/m/K
same,thermal conductivity,"296.8 K, 100 kPa, w1 = 0.2",0.553 ± 0.016 W/m/K
same,thermal conductivity,"296.8 K, 2000 kPa, w1 = 0.2",0.553 ± 0.016 W/m/K
same,thermal conductivity,"296.8 K, 10000 kPa, w1 = 0.2",0.557 ± 0.016 W/m/K
same,thermal conductivity,"296.8 K, 40000 kPa, w1 = 0.2",0.565 ± 0.016 W/m/K
same,thermal conductivity,"320.9 K, 100 kPa, w1 = 0.1",0.612 ± 0.017 W/m/K
same,thermal conductivity,"320.9 K, 2000 kPa, w1 = 0.1",0.612 ± 0.017 W/m/K
same,thermal conductivity,"320.9 K, 10000 kPa, w1 = 0.1",0.617 ± 0.017 W/m/K
same,thermal conductivity,"320.9 K, 40000 kPa, w1 = 0.1",0.628 ± 0.018 W/m/K
same,thermal conductivity,"321.4 K, 100 kPa, w1 = 0.3",0.554 ± 0.016 W/m/K
same,thermal conductivity,"321.4 K, 2000 kPa, w1 = 0.3",0.554 ± 0.016 W/m/K
same,thermal conductivity,"321.4 K, 10000 kPa, w1 = 0.3",0.559 ± 0.016 W/m/K
same,thermal conductivity,"321.4 K, 40000 kPa, w1 = 0.3",0.569 ± 0.016 W/m/K
same,thermal conductivity,"325.4 K, 100 kPa, w1 = 0.2",0.589 ± 0.017 W/m/K
same,thermal conductivity,"325.4 K, 2000 kPa, w1 = 0.2",0.589 ± 0.017 W/m/K
same,thermal conductivity,"325.4 K, 10000 kPa, w1 = 0.2",0.595 ± 0.017 W/m/K
same,thermal conductivity,"325.4 K, 40000 kPa, w1 = 0.2",0.602 ± 0.017 W/m/K
same,thermal conductivity,"351.2 K, 100 kPa, w1 = 0.2",0.616 ± 0.017 W/m/K
same,thermal conductivity,"351.2 K, 2000 kPa, w1 = 0.2",0.616 ± 0.017 W/m/K
same,thermal conductivity,"351.2 K, 10000 kPa, w1 = 0.2",0.62 ± 0.017 W/m/K
same,thermal conductivity,"351.2 K, 40000 kPa, w1 = 0.2",0.629 ± 0.018 W/m/K
same,thermal conductivity,"354.8 K, 100 kPa, w1 = 0.1",0.644 ± 0.018 W/m/K
same,thermal conductivity,"354.8 K, 2000 kPa, w1 = 0.1",0.644 ± 0.018 W/m/K
same,thermal conductivity,"354.8 K, 10000 kPa, w1 = 0.1",0.65 ± 0.018 W/m/K
same,thermal conductivity,"354.8 K, 40000 kPa, w1 = 0.1",0.662 ± 0.019 W/m/K
same,thermal conductivity,"357.6 K, 100 kPa, w1 = 0.3",0.588 ± 0.017 W/m/K
same,thermal conductivity,"357.6 K, 2000 kPa, w1 = 0.3",0.588 ± 0.017 W/m/K
same,thermal conductivity,"357.6 K, 10000 kPa, w1 = 0.3",0.591 ± 0.017 W/m/K
same,thermal conductivity,"357.6 K, 40000 kPa, w1 = 0.3",0.601 ± 0.017 W/m/K
same,thermal conductivity,"381.3 K, 100 kPa, w1 = 0.1",0.661 ± 0.019 W/m/K
same,thermal conductivity,"381.3 K, 2000 kPa, w1 = 0.1",0.661 ± 0.019 W/m/K
same,thermal conductivity,"381.3 K, 10000 kPa, w1 = 0.1",0.669 ± 0.019 W/m/K
same,thermal conductivity,"381.3 K, 40000 kPa, w1 = 0.1",0.682 ± 0.019 W/m/K
same,thermal conductivity,"384.2 K, 100 kPa, w1 = 0.3",0.601 ± 0.017 W/m/K
same,thermal conductivity,"384.2 K, 2000 kPa, w1 = 0.3",0.601 ± 0.017 W/m/K
same,thermal conductivity,"384.2 K, 10000 kPa, w1 = 0.3",0.605 ± 0.017 W/m/K
same,thermal conductivity,"384.2 K, 40000 kPa, w1 = 0.3",0.616 ± 0.018 W/m/K
same,thermal conductivity,"387.6 K, 100 kPa, w1 = 0.2",0.634 ± 0.018 W/m/K
same,thermal conductivity,"387.6 K, 2000 kPa, w1 = 0.2",0.634 ± 0.018 W/m/K
same,thermal conductivity,"387.6 K, 10000 kPa, w1 = 0.2",0.638 ± 0.018 W/m/K
same,thermal conductivity,"387.6 K, 40000 kPa, w1 = 0.2",0.647 ± 0.018 W/m/K
same,thermal conductivity,"403.2 K, 100 kPa, w1 = 0.1",0.661 ± 0.019 W/m/K
same,thermal conductivity,"403.2 K, 2000 kPa, w1 = 0.1",0.661 ± 0.019 W/m/K
same,thermal conductivity,"403.2 K, 10000 kPa, w1 = 0.1",0.667 ± 0.019 W/m/K
same,thermal conductivity,"403.2 K, 40000 kPa, w1 = 0.1",0.683 ± 0.02 W/m/K
same,thermal conductivity,"406.2 K, 100 kPa, w1 = 0.2",0.632 ± 0.018 W/m/K
same,thermal conductivity,"406.2 K, 2000 kPa, w1 = 0.2",0.632 ± 0.018 W/m/K
same,thermal conductivity,"406.2 K, 10000 kPa, w1 = 0.2",0.638 ± 0.018 W/m/K
same,thermal conductivity,"406.2 K, 40000 kPa, w1 = 0.2",0.648 ± 0.019 W/m/K
same,thermal conductivity,"409.6 K, 100 kPa, w1 = 0.3",0.6 ± 0.017 W/m/K
same,thermal conductivity,"409.6 K, 2000 kPa, w1 = 0.3",0.6 ± 0.017 W/m/K
same,thermal conductivity,"409.6 K, 10000 kPa, w1 = 0.3",0.606 ± 0.017 W/m/K
same,thermal conductivity,"409.6 K, 40000 kPa, w1 = 0.3",0.618 ± 0.018 W/m/K
same,thermal conductivity,"425.9 K, 100 kPa, w1 = 0.1",0.657 ± 0.018 W/m/K
same,thermal conductivity,"425.9 K, 2000 kPa, w1 = 0.1",0.657 ± 0.018 W/m/K
same,thermal conductivity,"425.9 K, 10000 kPa, w1 = 0.1",0.662 ± 0.019 W/m/K
same,thermal conductivity,"425.9 K, 40000 kPa, w1 = 0.1",0.681 ± 0.02 W/m/K
same,thermal conductivity,"427.2 K, 100 kPa, w1 = 0.3",0.598 ± 0.017 W/m/K
same,thermal conductivity,"427.2 K, 2000 kPa, w1 = 0.3",0.598 ± 0.017 W/m/K
same,thermal conductivity,"427.2 K, 10000 kPa, w1 = 0.3",0.604 ± 0.017 W/m/K
same,thermal conductivity,"427.2 K, 40000 kPa, w1 = 0.3",0.616 ± 0.018 W/m/K
same,thermal conductivity,"431.2 K, 100 kPa, w1 = 0.2",0.628 ± 0.018 W/m/K
same,thermal conductivity,"431.2 K, 2000 kPa, w1 = 0.2",0.628 ± 0.018 W/m/K
same,thermal conductivity,"431.2 K, 10000 kPa, w1 = 0.2",0.634 ± 0.018 W/m/K
same,thermal conductivity,"431.2 K, 40000 kPa, w1 = 0.2",0.646 ± 0.019 W/m/K
same,thermal conductivity,"456.9 K, 100 kPa, w1 = 0.2",0.616 ± 0.017 W/m/K
same,thermal conductivity,"456.9 K, 2000 kPa, w1 = 0.2",0.616 ± 0.017 W/m/K
same,thermal conductivity,"456.9 K, 10000 kPa, w1 = 0.2",0.623 ± 0.018 W/m/K
same,thermal conductivity,"456.9 K, 40000 kPa, w1 = 0.2",0.635 ± 0.018 W/m/K
same,thermal conductivity,"457.6 K, 100 kPa, w1 = 0.1",0.643 ± 0.018 W/m/K
same,thermal conductivity,"457.6 K, 2000 kPa, w1 = 0.1",0.643 ± 0.018 W/m/K
same,thermal conductivity,"457.6 K, 10000 kPa, w1 = 0.1",0.65 ± 0.018 W/m/K
same,thermal conductivity,"457.6 K, 40000 kPa, w1 = 0.1",0.665 ± 0.02 W/m/K
same,thermal conductivity,"463.1 K, 100 kPa, w1 = 0.3",0.582 ± 0.016 W/m/K
same,thermal conductivity,"463.1 K, 2000 kPa, w1 = 0.3",0.582 ± 0.016 W/m/K
same,thermal conductivity,"463.1 K, 10000 kPa, w1 = 0.3",0.586 ± 0.017 W/m/K
same,thermal conductivity,"463.1 K, 40000 kPa, w1 = 0.3",0.599 ± 0.017 W/m/K
same,thermal conductivity,"481.3 K, 10000 kPa, w1 = 0.2",0.609 ± 0.017 W/m/K
same,thermal conductivity,"481.3 K, 40000 kPa, w1 = 0.2",0.623 ± 0.018 W/m/K
same,thermal conductivity,"488.2 K, 10000 kPa, w1 = 0.1",0.628 ± 0.018 W/m/K
same,thermal conductivity,"488.2 K, 40000 kPa, w1 = 0.1",0.65 ± 0.02 W/m/K
same,thermal conductivity,"494.2 K, 10000 kPa, w1 = 0.3",0.564 ± 0.016 W/m/K
same,thermal conductivity,"494.2 K, 40000 kPa, w1 = 0.3",0.579 ± 0.017 W/m/K
same,thermal conductivity,"516.3 K, 10000 kPa, w1 = 0.3",0.542 ± 0.015 W/m/K
same,thermal conductivity,"516.3 K, 40000 kPa, w1 = 0.3",0.562 ± 0.017 W/m/K
same,thermal conductivity,"519.3 K, 10000 kPa, w1 = 0.1",0.598 ± 0.017 W/m/K
same,thermal conductivity,"519.3 K, 40000 kPa, w1 = 0.1",0.622 ± 0.02 W/m/K
same,thermal conductivity,"520.6 K, 10000 kPa, w1 = 0.2",0.575 ± 0.016 W/m/K
same,thermal conductivity,"520.6 K, 40000 kPa, w1 = 0.2",0.592 ± 0.018 W/m/K
same,thermal conductivity,"539.7 K, 10000 kPa, w1 = 0.3",0.511 ± 0.015 W/m/K
same,thermal conductivity,"539.7 K, 40000 kPa, w1 = 0.3",0.538 ± 0.018 W/m/K
same,thermal conductivity,"543.2 K, 10000 kPa, w1 = 0.1",0.569 ± 0.016 W/m/K
same,thermal conductivity,"543.2 K, 40000 kPa, w1 = 0.1",0.597 ± 0.019 W/m/K
same,thermal conductivity,"547.6 K, 10000 kPa, w1 = 0.2",0.539 ± 0.015 W/m/K
same,thermal conductivity,"547.6 K, 40000 kPa, w1 = 0.2",0.564 ± 0.018 W/m/K
same,thermal conductivity,"571.3 K, 10000 kPa, w1 = 0.2",0.501 ± 0.015 W/m/K
same,thermal conductivity,"571.3 K, 40000 kPa, w1 = 0.2",0.534 ± 0.019 W/m/K
same,thermal conductivity,"571.9 K, 10000 kPa, w1 = 0.1",0.522 ± 0.015 W/m/K
same,thermal conductivity,"571.9 K, 40000 kPa, w1 = 0.1",0.55 ± 0.019 W/m/K
same,thermal conductivity,"575.6 K, 10000 kPa, w1 = 0.3",0.455 ± 0.014 W/m/K
same,thermal conductivity,"575.6 K, 40000 kPa, w1 = 0.3",0.496 ± 0.022 W/m/K
